Source: paper PMC3873466 (PLoS ONE, 2013)
pKi: −log10 of the molar value.

Tests used:
[1] = target: F. tularensis ParE (full length) (Francisella tularensis, UniProt A0A0J9WZF0); assay: biochemical
[2] = target: E. coli GyrB (full length) (Escherichia coli, UniProt P0AES6); assay: biochemical

Sequence of F. tularensis ParE (full length) (A0A0J9WZF0 whole entry, looked up): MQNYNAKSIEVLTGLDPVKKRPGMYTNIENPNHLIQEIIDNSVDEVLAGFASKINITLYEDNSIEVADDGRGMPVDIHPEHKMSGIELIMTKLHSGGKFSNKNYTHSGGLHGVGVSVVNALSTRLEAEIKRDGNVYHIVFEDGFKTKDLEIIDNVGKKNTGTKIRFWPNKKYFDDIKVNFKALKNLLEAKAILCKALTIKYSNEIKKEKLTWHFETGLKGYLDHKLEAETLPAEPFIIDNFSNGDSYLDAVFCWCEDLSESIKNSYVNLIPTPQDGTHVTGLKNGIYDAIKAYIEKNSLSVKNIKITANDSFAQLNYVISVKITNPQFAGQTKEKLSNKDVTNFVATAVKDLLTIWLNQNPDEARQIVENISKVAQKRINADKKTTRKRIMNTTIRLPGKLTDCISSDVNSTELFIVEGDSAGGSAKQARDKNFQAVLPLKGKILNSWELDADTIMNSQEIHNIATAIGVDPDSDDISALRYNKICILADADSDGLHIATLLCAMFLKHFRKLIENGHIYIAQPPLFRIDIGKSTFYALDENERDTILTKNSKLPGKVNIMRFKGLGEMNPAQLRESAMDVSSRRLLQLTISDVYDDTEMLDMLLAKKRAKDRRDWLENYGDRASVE

CNc1cc(F)cc2c1[nH]c1nc(Oc3cnc(C)nc3)nc(N3C[C@H]4CCN[C@H]4C3)c12 [C3, 6-fluoro-4-((3aR,6aR)-hexahydropyrrolo[3,4-b]pyrrol-5(1H)-yl)-N-methyl-2-((2-methylpyrimidin-5-yl)oxy)-9H-pyrimido[4,5-b]indol-8-amine]
pKi [1]: > 9.40

CNc1cc(F)cc2c1[nH]c1nc(Oc3cnc(C)nc3)nc(N3C[C@@H]4[C@H](N)C[C@]4(C)C3)c12 [C4, 4-((1S,5R,6R)-6-amino-1-methyl-3-azabicyclo[3.2.0]heptan-3-yl)-6-fluoro-N-methyl-2-((2-methylpyrimidin-5-yl)oxy)-9H-pyrimido[4,5-b]indol-8-amine]
pKi [2]: 9.52
pKi [1]: 9.10
